#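 How tested: cells in 96-well plates exposed to compound for 48 hours at five concentrations. At the TGI there is no net growth.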
# System: SK-MEL-2 melanoma
# Assay: inhibition of tumour cell growth, NCI panel, 48 h
row,Compound,TGI
1,Cc1cc(OP2(=O)NCc3ncccc3O2)ccc1Cl (stereo not given),> 100 µM
2,O=C(O)c1cccc(S(=O)(=O)NN2C(=O)CSC2c2ccc(Cl)cc2Cl)c1 (stereo not given),> 100 µM

# System: SK-MEL-28 melanoma
# Assay: inhibition of tumour cell growth, NCI panel, 48 h
row,Compound,TGI
1,CC(C)Oc1cccc(N2C(=NCc3c[nH]c4ccccc34)Nc3ccncc3S2(=O)=O)c1,> 100 µM
2,COC(=O)c1c(C)cc(OC)c(C/C=C(\C)CCCc2coc(C=C(C)C)c2)c1OC,> 100 µM
3,Cc1cc(OP2(=O)NCc3ncccc3O2)ccc1Cl (stereo not given),> 100 µM
4,O=C(O)c1cccc(S(=O)(=O)NN2C(=O)CSC2c2ccc(Cl)cc2Cl)c1 (stereo not given),75.8 µM

# System: SK-MEL-5 melanoma
# Assay: inhibition of tumour cell growth, NCI panel, 48 h
row,Compound,TGI
1,CC(C)Oc1cccc(N2C(=NCc3c[nH]c4ccccc34)Nc3ccncc3S2(=O)=O)c1,27.7 µM
2,COC(=O)c1c(C)cc(OC)c(C/C=C(\C)CCCc2coc(C=C(C)C)c2)c1OC,> 100 µM
3,Cc1cc(OP2(=O)NCc3ncccc3O2)ccc1Cl (stereo not given),> 100 µM
4,O=C(O)c1cccc(S(=O)(=O)NN2C(=O)CSC2c2ccc(Cl)cc2Cl)c1 (stereo not given),> 100 µM

# System: SK-OV-3 ovarian
# Assay: inhibition of tumour cell growth, NCI panel, 48 h
row,Compound,TGI
1,CC(C)Oc1cccc(N2C(=NCc3c[nH]c4ccccc34)Nc3ccncc3S2(=O)=O)c1,> 100 µM
2,O=C(O)c1cccc(S(=O)(=O)NN2C(=O)CSC2c2ccc(Cl)cc2Cl)c1 (stereo not given),> 100 µM

# System: SN12C renal
# Assay: inhibition of tumour cell growth, NCI panel, 48 h
row,Compound,TGI
1,CC(C)Oc1cccc(N2C(=NCc3c[nH]c4ccccc34)Nc3ccncc3S2(=O)=O)c1,> 100 µM
2,COC(=O)c1c(C)cc(OC)c(C/C=C(\C)CCCc2coc(C=C(C)C)c2)c1OC,> 100 µM
3,Cc1cc(OP2(=O)NCc3ncccc3O2)ccc1Cl (stereo not given),> 100 µM
4,O=C(O)c1cccc(S(=O)(=O)NN2C(=O)CSC2c2ccc(Cl)cc2Cl)c1 (stereo not given),> 100 µM

# System: SNB-19 CNS
# Assay: inhibition of tumour cell growth, NCI panel, 48 h
row,Compound,TGI
1,CC(C)Oc1cccc(N2C(=NCc3c[nH]c4ccccc34)Nc3ccncc3S2(=O)=O)c1,> 100 µM
2,COC(=O)c1c(C)cc(OC)c(C/C=C(\C)CCCc2coc(C=C(C)C)c2)c1OC,> 100 µM
3,Cc1cc(OP2(=O)NCc3ncccc3O2)ccc1Cl (stereo not given),> 100 µM
4,O=C(O)c1cccc(S(=O)(=O)NN2C(=O)CSC2c2ccc(Cl)cc2Cl)c1 (stereo not given),> 100 µM

# System: SNB-75 CNS
# Assay: inhibition of tumour cell growth, NCI panel, 48 h
row,Compound,TGI
1,CC(C)Oc1cccc(N2C(=NCc3c[nH]c4ccccc34)Nc3ccncc3S2(=O)=O)c1,67.7 µM
2,COC(=O)c1c(C)cc(OC)c(C/C=C(\C)CCCc2coc(C=C(C)C)c2)c1OC,> 100 µM
3,Cc1cc(OP2(=O)NCc3ncccc3O2)ccc1Cl (stereo not given),> 100 µM
4,O=C(O)c1cccc(S(=O)(=O)NN2C(=O)CSC2c2ccc(Cl)cc2Cl)c1 (stereo not given),> 100 µM

# System: SR leukemia
# Assay: inhibition of tumour cell growth, NCI panel, 48 h
row,Compound,TGI
1,CC(C)Oc1cccc(N2C(=NCc3c[nH]c4ccccc34)Nc3ccncc3S2(=O)=O)c1,> 100 µM
2,COC(=O)c1c(C)cc(OC)c(C/C=C(\C)CCCc2coc(C=C(C)C)c2)c1OC,> 100 µM
3,Cc1cc(OP2(=O)NCc3ncccc3O2)ccc1Cl (stereo not given),> 100 µM
4,O=C(O)c1cccc(S(=O)(=O)NN2C(=O)CSC2c2ccc(Cl)cc2Cl)c1 (stereo not given),83.5 µM

# System: SW-620 colon
# Assay: inhibition of tumour cell growth, NCI panel, 48 h
row,Compound,TGI
1,CC(C)Oc1cccc(N2C(=NCc3c[nH]c4ccccc34)Nc3ccncc3S2(=O)=O)c1,> 100 µM
2,COC(=O)c1c(C)cc(OC)c(C/C=C(\C)CCCc2coc(C=C(C)C)c2)c1OC,> 100 µM
3,Cc1cc(OP2(=O)NCc3ncccc3O2)ccc1Cl (stereo not given),> 100 µM
4,O=C(O)c1cccc(S(=O)(=O)NN2C(=O)CSC2c2ccc(Cl)cc2Cl)c1 (stereo not given),> 100 µM

# System: T-47D breast
# Assay: inhibition of tumour cell growth, NCI panel, 48 h
row,Compound,TGI
1,CC(C)Oc1cccc(N2C(=NCc3c[nH]c4ccccc34)Nc3ccncc3S2(=O)=O)c1,85.2 µM
2,COC(=O)c1c(C)cc(OC)c(C/C=C(\C)CCCc2coc(C=C(C)C)c2)c1OC,> 100 µM
3,Cc1cc(OP2(=O)NCc3ncccc3O2)ccc1Cl (stereo not given),> 100 µM
4,O=C(O)c1cccc(S(=O)(=O)NN2C(=O)CSC2c2ccc(Cl)cc2Cl)c1 (stereo not given),> 100 µM

# System: TK-10 renal
# Assay: inhibition of tumour cell growth, NCI panel, 48 h
row,Compound,TGI
1,CC(C)Oc1cccc(N2C(=NCc3c[nH]c4ccccc34)Nc3ccncc3S2(=O)=O)c1,97.4 µM
2,COC(=O)c1c(C)cc(OC)c(C/C=C(\C)CCCc2coc(C=C(C)C)c2)c1OC,> 100 µM
3,O=C(O)c1cccc(S(=O)(=O)NN2C(=O)CSC2c2ccc(Cl)cc2Cl)c1 (stereo not given),> 100 µM

# System: U251 CNS
# Assay: inhibition of tumour cell growth, NCI panel, 48 h
row,Compound,TGI
1,CC(C)Oc1cccc(N2C(=NCc3c[nH]c4ccccc34)Nc3ccncc3S2(=O)=O)c1,> 100 µM
2,COC(=O)c1c(C)cc(OC)c(C/C=C(\C)CCCc2coc(C=C(C)C)c2)c1OC,> 100 µM
3,Cc1cc(OP2(=O)NCc3ncccc3O2)ccc1Cl (stereo not given),> 100 µM
4,O=C(O)c1cccc(S(=O)(=O)NN2C(=O)CSC2c2ccc(Cl)cc2Cl)c1 (stereo not given),44.7 µM

# System: UACC-257 melanoma
# Assay: inhibition of tumour cell growth, NCI panel, 48 h
row,Compound,TGI
1,CC(C)Oc1cccc(N2C(=NCc3c[nH]c4ccccc34)Nc3ccncc3S2(=O)=O)c1,> 100 µM
2,COC(=O)c1c(C)cc(OC)c(C/C=C(\C)CCCc2coc(C=C(C)C)c2)c1OC,> 100 µM
3,Cc1cc(OP2(=O)NCc3ncccc3O2)ccc1Cl (stereo not given),> 100 µM
4,O=C(O)c1cccc(S(=O)(=O)NN2C(=O)CSC2c2ccc(Cl)cc2Cl)c1 (stereo not given),> 100 µM

# System: UACC-62 melanoma
# Assay: inhibition of tumour cell growth, NCI panel, 48 h
row,Compound,TGI
1,CC(C)Oc1cccc(N2C(=NCc3c[nH]c4ccccc34)Nc3ccncc3S2(=O)=O)c1,93.5 µM
2,COC(=O)c1c(C)cc(OC)c(C/C=C(\C)CCCc2coc(C=C(C)C)c2)c1OC,> 100 µM
3,Cc1cc(OP2(=O)NCc3ncccc3O2)ccc1Cl (stereo not given),> 100 µM
4,O=C(O)c1cccc(S(=O)(=O)NN2C(=O)CSC2c2ccc(Cl)cc2Cl)c1 (stereo not given),86.3 µM

# System: UO-31 renal
# Assay: inhibition of tumour cell growth, NCI panel, 48 h
row,Compound,TGI
1,CC(C)Oc1cccc(N2C(=NCc3c[nH]c4ccccc34)Nc3ccncc3S2(=O)=O)c1,> 100 µM
2,COC(=O)c1c(C)cc(OC)c(C/C=C(\C)CCCc2coc(C=C(C)C)c2)c1OC,> 100 µM
3,Cc1cc(OP2(=O)NCc3ncccc3O2)ccc1Cl (stereo not given),> 100 µM
4,O=C(O)c1cccc(S(=O)(=O)NN2C(=O)CSC2c2ccc(Cl)cc2Cl)c1 (stereo not given),> 100 µM
